# Reference: patent US11528909B2, “Method of controlling nematodes in agricultural crops” (priority 2020, dated 2022)
# Assays:
# [1] = test system: soybean cyst nematode J2s; test: Soybean cyst nematode J2 treatment in Petri dish (cuticle covering, molting, death); type: in vivo; conditions: for MEAN SCN Covered Cuticle / MEAN SCN Dead J2s: ten freshly hatched J2s per dish, three replicates
# Description: Different developmental stages of soybean cyst nematode were targeted for treatment in soil. Soybean cyst nematode has an egg stage, four juvenile stages (samples J1 to J4), adult male and female stages. From J1 to adult development, during each development stage, the nematode undergoes a molt, that is, a shedding of the outside cuticle and forming a new cuticle.
# Ten freshly hatched J2s were removed from pure culture and added to three different concentrations (0.5 weight %, […], and 0.12 weight % of Composition solution in a […] Petri dish containing DI water. Composition is (CH3O)3Si(CH2)3N^+ C18H37(CH3)2 Cl^−.
# Observations were made over time under an inverted microscope and compound microscope and for both soybean cyst nematode in Composition and also in just DI water which were replicated three times.
# [2] = test system: soybean cyst nematode J2s; test: as above; type: in vivo; conditions: 0.25% Composition in DI water; ten freshly hatched J2s per dish, three replicates
compound,measurement,setting,value
"CCCCCCCCCCCCCCCCCC[N+](C)(C)CCC[Si](OC)(OC)OC.[Cl-] [Composition, 3-(trimethoxysilyl)-propyldimethyloctadecyl ammonium chloride]",MEAN SCN Covered Cuticle,[1]; 0.12% Composition in DI water,5.3
same,MEAN SCN Dead J2s,[1]; 0.12% Composition in DI water,6.66
same,MEAN SCN Covered Cuticle,[1]; 0.5% Composition in DI water,5.16
same,MEAN SCN Dead J2s,[1]; 0.5% Composition in DI water,8.00
same,Microscopic observation of J2s after one day,"[1]; all concentrations, after one day",accumulates on the cuticle of J2s
same,Microscopic observation of J2s on the second day,"[1]; all concentrations, second day",J2s shed the cuticle
same,Statistical effect on soybean cyst nematode J2s (covered cuticles and dead nematodes versus treatment),[1]; all tested concentrations,significantly affects the soybean cyst nematode J2s
same,Overall effect on the nematode in vitro,[1]; in vitro,cuticle disruption and therefore accelerated molting of the nematode in vitro and ultimate death of the nematodes
same,MEAN SCN Covered Cuticle,[2],5.16
same,MEAN SCN Dead J2s,[2],7.66
